The conditions of assay [1]: in solution; read-out: Kd for zinc; cited from earlier work.
Another assay concerns the target T1, MMP-14 (Homo sapiens, UniProt P50281).
T1 construct: human MT1-MMP/MMP-14 (catalytic domain); purchased Calbiochem (San Diego, CA, USA)
The assay can be described thus: Time-dependent slow, reversible/irreversible binding of TPA to MMP-14 (pre-incubation and micro-dialysis). The assay is classed as biochemical. To be noted: for vi/v0 MMP-14: 100 μM TPA. The method, then:
We tested if TPA is a time-dependent irreversible or reversible inhibitor of MMP-14. In these experiments, two different concentrations of MMP-14 (45 and 5.6 nM) were pre-incubated up to 48 min at 37 °C with 10.0 and 11.1 μM of TPA, respectively, as described in Materials and Methods. As controls, the same amount of MMP-14 (without TPA but with the same concentration of DMSO) was identically pre-incubated at 37 °C. […] In the presence of 100 μM TPA, vi/v0 was 0.61 after 2 min and 0.03 after 11 min pre-incubation at 37 °C. To determine whether the observed time-dependent inhibition was due to reversible or irreversible inhibition, a solution of 45 nM MMP-14 was first pre-incubated for approximately 40 min at 37 °C with 10 μM TPA (1% DMSO in assay buffer, pH 7.5). As a control, MMP-14 (without TPA but with the same concentration of DMSO) was also pre-incubated for approximately 40 min at 37 °C. […]
In pre-incubation tests with high concentration of MMP-14, 90 μL 50 nM MMP-14 was mixed with 9.0 μL 110 μM TPA (dissolved in 0.1 M Hepes pH 7.5 containing 10 mM CaCl2, 0.005% Brij-35 and 10% DMSO) and incubated at 37 °C for up to 48 min. […] At different time points, 10 μL of the enzyme (with and without TPA) was added to 90 μL of 0.1 M Hepes pH 7.5 containing 10 mM CaCl2, 0.005% Brij-35 and 11.1 μM ES001 and the initial rate reaction velocity (v) was determined as described in Section 3.4. using a Perkin Elmer LS 50 Luminescence spectrometer. […]
In pre-incubation tests with a low concentration of MMP-14, 60 μL 50 nM MMP-14 was mixed with 420 μL 0.1 M Hepes pH 7.5 (containing 10 mM CaCl2, 0.005% Brij-35) and 60 μL of either 0.1 M Hepes pH 7.5 containing 10 mM CaCl2, 0.005% Brij-35 and 10% DMSO (control) or 60 μL 100 μM TPA (dissolved in 0.1 M Hepes pH 7.5 containing 10 mM CaCl2, 0.005% Brij-35 and 10% DMSO). At different time points, 90 μL of the enzyme (with and without TPA) was mixed with 10 μL 100 μM ES001 and the initial rate of the reaction was determined as described above. […]

pKd: −log10 of the molar value.

Here are results for 1 compound from article PMC8746695, “Zinc-Chelating Compounds as Inhibitors of Human and Bacterial Zinc Metalloproteases” (Molecules, 2021).

The term pKd denotes −log10 of the Kd, conventionally taken in molar units. For `c1ccc(CN(Cc2ccccn2)Cc2ccccn2)nc1` [TPA, tri(2-pyridinemethyl)amine, reference compound], in assay [1], the pKd is about 11.00. The “vi/v0 MMP-14” value at MMP-14 (2 min pre-incubation at 37 °C) turned out to be 0.61; on MMP-14 (11 min pre-incubation at 37 °C), 0.03. The “type of inhibition of MMP-14” value at MMP-14 (pre-incubation 37 °C, micro-dialysis 4 °C) is listed as “slow, reversible inhibitor”.
